According to PubChem BioAssay AID1259411 (Chemical Carcinogenesis Research Information System (CCRIS), 2018):
Active and inactive are the calls of the source. No rule for the calls is given here.

System: rodent carcinogenicity bioassays, tumor incidence
Assay: CCRIS carcinogenicity studies
Outline: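 NCI-built, expert-reviewed records of carcinogenicity and related test outcomes (mutagenicity, tumor promotion/inhibition) compiled from published and report sources, historical span 1985-2011, not updated.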

O=[N+]([O-])c1ccc2ccc3cccc4ccc1c2c34
carcinogen call (Species: HAMSTER, Strain/Sex: SYRIAN/MALE, Route: INTRATRACHEAL, Dose: 0, 1, 2 MG ADSORBED ONTO CARBON CARRIER PARTICLES IN 0.2 ML SALINE 1/WK FOR 92 WK (STUDY DURATION: 92 WK), Dose: 0, 1, 2 MG ADSORBED ONTO CARBON CARRIER PARTICLES IN 0.2 ML SALINE 1/WK FOR 92 WK (STUDY DURATION: 92 WK)): inactive; negative | carcinogen call (Species: HAMSTER, Strain/Sex: SYRIAN/MALE, Route: INTRATRACHEAL, Dose: 0, 1, 2 MG ADSORBED ONTO CARBON CARRIER PARTICLES IN 0.2 ML SALINE 2/WK FOR 92 WK (STUDY DURATION: 92 WK), Dose: 0, 1, 2 MG ADSORBED ONTO CARBON CARRIER PARTICLES IN 0.2 ML SALINE 2/WK FOR 92 WK (STUDY DURATION: 92 WK)): inactive; negative | carcinogen call (Species: MOUSE, Strain/Sex: B6C3F1/FEMALE, Route: INTRAPERITONEAL, Dose: 0, 7 NMOL (TOTAL DOSE), 1/7, 2/7 AND 4/7 OF THE TOTAL DOSE ADMINISTERED WITHIN 24 HR OF BIRTH AND AT 8 AND 15 D OF AGE): inactive; negative | carcinogen call (Species: MOUSE, Strain/Sex: B6C3F1/MALE, Route: INTRAPERITONEAL, Dose: 0, 7 NMOL (TOTAL DOSE), 1/7, 2/7 AND 4/7 OF THE TOTAL DOSE ADMINISTERED WITHIN 24 HR OF BIRTH AND AT 8 AND 15 D OF AGE): inactive; negative | carcinogen call (Species: MOUSE, Strain/Sex: BALB/MALE, Route: SUBCUTANEOUS, Dose: 0, 0.1 MG IN DMSO 1/WK FOR 20 WK (STUDY DURATION: 60 WK)): inactive; negative | carcinogen call (Species: MOUSE, Strain/Sex: ICR/FEMALE, Route: INTRAPERITONEAL, Dose: 0, 21 UG TOTAL DOSE (3 UG/5 µL, 6 UG/10 µL, 12 UG/20 µL DMSO ON DAYS 1,8 AND 15), 105 UG TOTAL DOSE (15 UG/5 µL, 30 UG/1, Dose: 0, 21 UG TOTAL DOSE (3 UG/5 µL, 6 UG/10 µL, 12 UG/20 µL DMSO ON DAYS 1,8 AND 15), 105 UG TOTAL DOSE (15 UG/5 µL, 30 UG/1): inactive; negative | carcinogen call (Species: MOUSE, Strain/Sex: ICR/MALE, Route: INTRAPERITONEAL, Dose: 0, 21 UG TOTAL DOSE (3 UG/5 µL, 6 UG/10 µL, 12 UG/20 µL DMSO ON DAYS 1,8 AND 15), 105 UG TOTAL DOSE (15 UG/5 µL, 30 UG/1, Dose: 0, 21 UG TOTAL DOSE (3 UG/5 µL, 6 UG/10 µL, 12 UG/20 µL DMSO ON DAYS 1,8 AND 15), 105 UG TOTAL DOSE (15 UG/5 µL, 30 UG/1): inactive; negative | carcinogen call (Species: MOUSE, Strain/Sex: STRAIN-A/FEMALE, Route: INTRAPERITONEAL, Dose: 0, 0.71, 2.14, 6.44 MMOL/KG IN 0.1 ML TRIOCTANOIN TOTAL DOSE ADMINISTERED AS 3 INJECTIONS/WK FOR 17 INJECTIONS (STUDY DU, Dose: 0, 0.71, 2.14, 6.44 MMOL/KG IN 0.1 ML TRIOCTANOIN TOTAL DOSE ADMINISTERED AS 3 INJECTIONS/WK FOR 17 INJECTIONS (STUDY DU, Tumor Site: Type of Lesion: LUNG: ADENOMA): active; positive | carcinogen call (Species: MOUSE, Strain/Sex: STRAIN-A/MALE, Route: INTRAPERITONEAL, Dose: 0, 0.71, 2.14, 6.44 MMOL/KG IN 0.1 ML TRIOCTANOIN TOTAL DOSE ADMINISTERED AS 3 INJECTIONS/WK FOR 17 INJECTIONS (STUDY DU, Dose: 0, 0.71, 2.14, 6.44 MMOL/KG IN 0.1 ML TRIOCTANOIN TOTAL DOSE ADMINISTERED AS 3 INJECTIONS/WK FOR 17 INJECTIONS (STUDY DU, Tumor Site: Type of Lesion: LUNG: ADENOMA): active; positive | carcinogen call (Species: RAT, Strain/Sex: F344/DUCRJ FISCHER/MALE, Route: SUBCUTANEOUS, Dose: 2 MG TWICE WEEKLY FOR 10 WK (STUDY DURATION: 52 WK), Tumor Site: Type of Lesion: INTEGUMENTARY SYSTEM: FIBROUS HISTIOCYTOMAS): active; positive | carcinogen call (Species: RAT, Strain/Sex: F344/FEMALE, Route: SUBCUTANEOUS, Dose: 0, 40 UMOL (TOTAL DOSE) ADMINISTERED OVER 8 WK BEGINNING WITHIN 24 HR OF BIRTH (STUDY DURATION: 86 WK), Tumor Site: Type of Lesion: HEMATOPOIETIC SYSTEM: LEUKEMIA): active; positive | carcinogen call (Species: RAT, Strain/Sex: F344/MALE, Route: SUBCUTANEOUS, Dose: 0, 0.2, 2 MG 2/WK FOR 10 WK (STUDY DURATION: 650 D), Dose: 0, 0.2, 2 MG 2/WK FOR 10 WK (STUDY DURATION: 650 D)): inactive; negative | carcinogen call (Species: RAT, Strain/Sex: F344/MALE, Route: SUBCUTANEOUS, Dose: 2 MG IN DMSO 2/WK FOR 10 WK, Tumor Site: Type of Lesion: INJECTION SITE: MALIGNANT FIBROUS HISTIOCYTOMA): active; positive | carcinogen call (Species: RAT, Strain/Sex: SPRAGUE-DAWLEY/FEMALE, Route: SUBCUTANEOUS, Dose: 0, 50, 100 UMOL/KG IN DMSO 1/WK FOR 8 WK (STUDY DURATION: 62 WK), Dose: 0, 50, 100 UMOL/KG IN DMSO 1/WK FOR 8 WK (STUDY DURATION: 62 WK), Tumor Site: Type of Lesion: INJECTION SITE: MALIGNANT FIBROUS HISTIOCYTOMA, MAMMARY GLAND: FIBROADENOMA, ADENOCARCINOMA): active; positive | carcinogen call (Species: RAT, Strain/Sex: SPRAGUE-DAWLEY/MALE, Route: SUBCUTANEOUS, Dose: 0, 50, 100 UMOL/KG IN DMSO 1/WK FOR 8 WK (STUDY DURATION: 62 WK), Dose: 0, 50, 100 UMOL/KG IN DMSO 1/WK FOR 8 WK (STUDY DURATION: 62 WK), Tumor Site: Type of Lesion: INJECTION SITE: MALIGNANT FIBROUS HISTIOCYTOMA): active; positive | carcinogen call (Species: RAT, Strain/Sex: STRAIN CD/FEMALE, Route: INTRAGASTRIC, Dose: 0, 10 UMOL IN DMSO 3/WK FOR 4 WK (TOTAL DOSE: 16 UMOL/RAT) (STUDY DURATION: 78 WK)): inactive; negative | carcinogen call (Species: RAT, Strain/Sex: STRAIN CD/FEMALE, Route: INTRAPERITONEAL, Dose: 0, 10 UMOL IN DMSO 3/WK FOR 4 WK (TOTAL DOSE: 16 UMOL/RAT) (STUDY DURATION: 78 WK), Tumor Site: Type of Lesion: MAMMARY GLAND: ADENOCARCINOMA, FIBROADENOMA): active; positive | carcinogen call (Species: RAT, Strain/Sex: STRAIN CD/FEMALE, Route: INTRAPERITONEAL, Dose: 0, 10 UMOL IN DMSO 3/WK FOR 4 WK (TOTAL DOSE: 16 UMOL/RAT) (STUDY DURATION: 78 WK), Tumor Site: Type of Lesion: PITUITARY GLAND: CARCINOMA): active; positive | carcinogen call (Species: RAT, Strain/Sex: STRAIN-CD/FEMALE, Route: GAVAGE, Dose: 0, 50 UMOL IN 0.5 ML TRIOCTANOIN 1/WK FOR 8 WK (STUDY DURATION: 49 WK), Tumor Site: Type of Lesion: MAMMARY GLAND: FIBROADENOMA): active; positive | carcinogen call (Species: RAT, Strain/Sex: STRAIN-CD/FEMALE, Route: INJECTION, Dose: 0, 0.1 ML OF 20.3 UMOL/ML DMSO INJECTED INTO MAMMARY TISSUE OF THE 3 LEFT THORACIC NIPPLES FOLLOWED THE NEXT D BY SIMILA): inactive; negative | carcinogen call (Species: RAT, Strain/Sex: STRAIN-CD/FEMALE, Route: INJECTION, Dose: 0, 0.1 ML OF A 20.3 UMOL/ML SOLUTION IN DMSO INJECTED INTO MAMMARY TISSUE UNDERLYING 3 LEFT THORACIC NIPPLES THE FOLLOWI): inactive; negative | carcinogen call (Species: RAT, Strain/Sex: STRAIN-CD/FEMALE, Route: INTRAPERITONEAL, Dose: 0, 67 UMOL/KG BW IN DMSO 3/WK FOR 4 WK (STUDY DURATION: 61 WK)): inactive; negative | carcinogen call (Species: RAT, Strain/Sex: STRAIN-CD/FEMALE, Route: INTRAPERITONEAL, Dose: 0, 67 UMOL/KG/BW IN 25 UMOL/ML DMSO 3/WK FOR 4 WK (TOTAL DOSE: 0; 119 UMOL) ADMINISTERED TO WEANLING RATS (STUDY DURATIO, Dose: 0, 67 UMOL/KG/BW IN 25 UMOL/ML DMSO 3/WK FOR 4 WK (TOTAL DOSE: 0; 119 UMOL) ADMINISTERED TO WEANLING RATS (STUDY DURATIO): inactive; negative | carcinogen call (Species: RAT, Strain/Sex: STRAIN-CD/FEMALE, Route: INTRAPERITONEAL, Dose: 0, 100 UMOL/KG BW IN DMSO 1/WK FOR 4 WK (STUDY DURATION: 90 WK), Tumor Site: Type of Lesion: MAMMARY GLAND: ADENOCARCINOMA): active; positive | carcinogen call (Species: RAT, Strain/Sex: STRAIN-CD/FEMALE, Route: INTRAPERITONEAL, Dose: 0, 100 UMOL/KG/BW IN 70 UMOL/ML DMSO 1/WK FOR 4 WK (TOTAL DOSE: 0; 77.3 UMOL) ADMINISTERED TO WEANLING RATS (STUDY DURAT, Dose: 0, 100 UMOL/KG/BW IN 70 UMOL/ML DMSO 1/WK FOR 4 WK (TOTAL DOSE: 0; 77.3 UMOL) ADMINISTERED TO WEANLING RATS (STUDY DURAT, Tumor Site: Type of Lesion: MAMMARY GLAND: ADENOCARCINOMA): active; positive | carcinogen call (Species: RAT, Strain/Sex: STRAIN-CD/FEMALE, Route: SUBCUTANEOUS, Dose: 0, 6.3 UMOL (TOTAL DOSE) ADMINISTERED OVER 8 WK BEGINNING ON DAY OF BIRTH (STUDY DURATION: 67 WK), Tumor Site: Type of Lesion: MAMMARY GLAND: TUMOR): active; positive | carcinogen call (Species: RAT, Strain/Sex: STRAIN-CD/FEMALE, Route: SUBCUTANEOUS, Dose: 0, 63 UMOL (TOTAL DOSE) ADMINISTERED OVER 8 WK BEGINNING WITHIN 24 HR OF BIRTH (STUDY DURATION: 86 WK), Tumor Site: Type of Lesion: MAMMARY GLAND: TUMOR): active; positive | carcinogen call (Species: RAT, Strain/Sex: STRAIN-CD/FEMALE, Route: SUBCUTANEOUS, Dose: 0, 100 UMOL/KG BW IN DMSO 1/WK FOR 4 WK (STUDY DURATION: 90 WK), Tumor Site: Type of Lesion: MAMMARY GLAND: FIBROADENOMA): active; positive | carcinogen call (Species: RAT, Strain/Sex: STRAIN-CD/FEMALE, Route: SUBCUTANEOUS, Dose: 0, 100 UMOL/KG/BW IN 70 UMOL/ML DMSO 1/WK FOR 4 WK (TOTAL DOSE: 0; 74.3 UMOL) ADMINISTERED TO WEANLING RATS (STUDY DURAT, Dose: 0, 100 UMOL/KG/BW IN 70 UMOL/ML DMSO 1/WK FOR 4 WK (TOTAL DOSE: 0; 74.3 UMOL) ADMINISTERED TO WEANLING RATS (STUDY DURAT, Tumor Site: Type of Lesion: MAMMARY GLAND: FIBROADENOMA): active; positive | carcinogen call (Species: RAT, Strain/Sex: STRAIN-CD/FEMALE, Route: SUBCUTANEOUS, Dose: 50, 100 UMOL/KG IN DMSO 1/WK FOR 8 WK, Tumor Site: Type of Lesion: INJECTION SITE: FIBROSARCOMA, MAMMARY GLAND: ADENOCARCINOMA): active; positive | carcinogen call (Species: RAT, Strain/Sex: STRAIN-CD/MALE, Route: SUBCUTANEOUS, Dose: 50, 100 UMOL/KG IN DMSO 1/WK FOR 8 WK, Tumor Site: Type of Lesion: INJECTION SITE: FIBROSARCOMA): active; positive
